Measurements taken from patent US8975265B2, “Substituted imidazo[1,2-a]pyrimidines and —pyridines” (Bayer Intellectual Property GmbH, priority 2010, dated 2015).
Read-outs that look alike come from different tables or passages of the source.

Columns and labels:
A2058 (melanoma) = assay: Tumor cell proliferation assay, A2058; format: cell-based; details: Homo sapiens, 72h drug exposure, read-out: median IC50
Method: (§1) Biological Assay 4.0: Tumor Cell Proliferation Assays
(§2) Compounds were tested in a cell-based assay that measures the capacity of the compounds to inhibit tumour cell proliferation following a 72h drug exposure. Cell viability is determined using CellTiter-Glow® (CTG, Promega, cat# G7571/2/3). The CellTiter-Glo® Luminescent Cell Viability Assay is a homogeneous method to determine the number of viable cells in culture. Detection is based on using the luciferase reaction to measure the amount of ATP from viable cells. The amount of ATP in cells correlates with cell viability. Within minutes after a loss of membrane integrity, cells lose the ability to synthesize ATP, and endogenous ATPases destroy any remaining ATP; thus the levels of ATP fall precipitously.
(§3) Cells were plated at 3000-5000 cells/well (depending on the cell lines) in 90 μL growth medium on MTPs (Corning; #3603, black plate, clear flat bottom). For each cell line assayed, cells were plated onto a separate plate for determination of […] at t=0 hour and t=72 hour time points. Following overnight incubation at 37° C., chemiluminescence values for the t=0 samples were determined after adding 10 μl medium and 100 μl CTG solution according to manufacture protocol. […] Chemiluminescence values for the t=72 hour samples were determined. […]

HT-144 (melanoma) = assay: Tumor cell proliferation assay, HT-144; format: cell-based; details: Homo sapiens, 72h drug exposure, read-out: median IC50
Method: as §1, §2, §3

MeWo (melanoma) = assay: Tumor cell proliferation assay, MeWo; format: cell-based; details: Homo sapiens, 72h drug exposure, read-out: median IC50
Method: as §1, §2, §3

H1993 (NSCLC) = assay: Tumor cell proliferation assay, H1993; format: cell-based; details: Homo sapiens, NCI-H1993, 72h drug exposure, read-out: median IC50
Method: as §1, §2, §3

Malme-3M (melanoma) = assay: Tumor cell proliferation assay, Malme-3M; format: cell-based; details: Homo sapiens, 72h drug exposure, read-out: median IC50
Method: as §1, §2, §3

A375 (melanoma) = assay: Tumor cell proliferation assay, A375; format: cell-based; details: Homo sapiens, A-375, 72h drug exposure, read-out: median IC50
Method: as §1, §2, §3

UACC-62 (melanoma) = assay: Tumor cell proliferation assay, UACC-62; format: cell-based; details: Homo sapiens, 72h drug exposure, read-out: median IC50
Method: as §1, §2, §3

HMCB (melanoma) = assay: Tumor cell proliferation assay, HMCB; format: cell-based; details: Homo sapiens, 72h drug exposure, read-out: median IC50
Method: as §1, §2, §3

UACC-257 (melanoma) = assay: Tumor cell proliferation assay, UACC-257; format: cell-based; details: Homo sapiens, 72h drug exposure, read-out: median IC50
Method: as §1, §2, §3

U87 (brain) = assay: Tumor cell proliferation assay, U87; format: cell-based; details: 72h drug exposure, read-out: median IC50
Method: as §1, §2, §3

SK-Mel-28 (melanoma) = assay: Tumor cell proliferation assay, SK-Mel-28; format: cell-based; details: Homo sapiens, 72h drug exposure, read-out: median IC50
Method: as §1, §2, §3

[1] = system: KPL-4 breast cancer cell line; assay: Tumor cell proliferation assay (CellTiter-Glo, 72 h), KPL-4; format: cell-based; details: KPL4, 72h drug exposure
Method in brief: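 KPL-4 cells were treated with compound for 72 h at 37°C. Viability was measured as ATP by CellTiter-Glo luminescence, with a separate t=0 plate read after overnight attachment. A reference compound was run as standard.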

[2] = target: His-tagged human recombinant kinase full-length Akt1 (Homo sapiens (Human), UniProt P31749); assay: Akt1 kinase assay (TR-FRET); format: biochemical; details: 10 μM ATP; read-out: Akt1, median IC50
Method in brief: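 Full-length His-tagged Akt1 (about 0.05 ng/μl final) preincubated 15 min at 22 °C with compound in 50 mM TRIS/HCl pH 7.5, 5 mM MgCl2, 1 mM DTT, 0.02% Triton X-100; biotinylated peptide substrate. Phosphopeptide detected by TR-FRET (Eu-chelate antibody to streptavidin-XL665) after 1 h at 22 °C.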

[3] = system: p-AKT S473 in PC3 human prostate tumours; assay: In vivo xenograft mechanism of action study; parameters: species or system athymic nude mice; details: Mus musculus, po, PC3 tumours in nude mice, once 50 mg/kg p.o.
Excerpt: In Vivo Xenograft Mechanism of Action Study
To this extent PC3 human prostate tumours were xenografted onto athymic nude mice. PC3 tumour cells were cultivated according to ATCC protocols in recommended media contained 10% FCS and harvested for transplantation in a subconfluent (70%) state. 3×10^6 tumour cells suspended in 50% Matrigel were subcutaneously implantated into the inguinal region of male mice. Tumours were allowed to grow to the predetermined size of 60-80 mm^2. When the tumours were approximately in size, the animals were randomized to treatment and control groups (groups size: 9 animals) and treatment was started. Animals were treated once with 50 mg/kg compound or vehicle per oral administration (p.o.) carried out via a gastric tube. Treatment of each animal was based on individual body weight. At 2, 5 and 24 hours post treatment 3 animals each were sacrificed and the PC3 tumours excised. Tumour samples of approximately 5×5×5 mm were lysed on ice in MSD lysis buffer in the presence of protease and phosphatase inhibitors using Tissue Lyzer (Qiagen, Germany). The levels of p-AKT S473 in extracts from tumour tissue were analysed in an ELISA based assay. This assay is based on the “Akt Duplex” of the MULTI-SPOT® Assay System (Fa. Meso Scale Discovery, Cat# N41100B-1) following manufacturers instructions. Each assay used 20 μg of protein extract and measured total AKT and p-AKT content simultaneously in one well. All measurements where at least done in duplicates and confirmed by independent repetition.
Values for P-AKT are expressed as percentage of P-AKT level compared to total-AKT content of the extracts. Vehicle treated tumours were analyzed to determine the basal level of P-AKT in this model and used as a normalization control to determine the % P-AKT relative to vehicle levels.

MCF7 = assay: Tumor cell proliferation assay (CellTiter-Glo, 72 h), MCF7; format: cell-based; details: Homo sapiens, 72h drug exposure
Method in brief: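 Cells seeded at 3000–5000/well and incubated overnight, then exposed to compound for 72 h at 37 °C. Viability measured by CellTiter-Glo ATP luminescence, with a separate plate read at t=0.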

[4] = system: p-AKT1/2/3-S473 in KPL4 breast tumour cell line; assay: Cellular p-AKT1/2/3-S473 assay; format: cell-based; details: KPL4 breast tumour cell line, 2 hours treatment; read-out: pAKT-S743 median IC50
Method in brief: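 KPL4 cells (PIK3CA H1047R, HER2 0/E, hormone independent) were seeded at 60–80% confluency, cultured overnight, then exposed to compound for 2 h at 37 °C. pAKT-S473 and total AKT measured together by MSD Akt Duplex on 20 µg extract; pAKT expressed as % of total AKT, at least duplicate with independent repeats.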

LnCAP = assay: Tumor cell proliferation assay (CellTiter-Glo, 72 h), LnCAP; format: cell-based; details: Homo sapiens, 72h drug exposure
Method: as §2
Cells were plated at 3000-5000 cells/well (depending on the cell lines) in 90 μL growth medium on MTPs (Corning; #3603, black plate, clear flat bottom). For each cell line assayed, cells were plated onto a separate plate for determination of […] at t=0 hour and t=72 hour time points. Following overnight incubation at 37° C., chemiluminescence values for the t=0 samples were determined after adding 10 μl medium and 100 μl CTG solution according to manufacture protocol. Plates for the t=72 hour time points were treated with compounds diluted into growth medium at ten times final concentration added in 10 μL to the cell culture plate. Cells were then incubated for 72 hours at 37° C. Chemiluminescence values for the t=72 hour samples were determined. […] Experiments were controlled using a reference compound as standard.

[5] = system: p-4E-BP1-T70 in KPL4 breast tumour cell line; assay: Cellular p-4E-BP1-T70 assay; format: cell-based; details: 2 hours treatment, read-out: P4EBP1-T70 median IC50
Method in brief: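 KPL4 cells (PIK3CA H1047R, hormone independent) seeded at 60-80% confluency, incubated overnight, then exposed to compounds for 2 h at 37 °C. Lysates assayed for phospho-4E-BP1 T70 by AlphaScreen SureFire, in at least duplicate with independent repetition.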

[6] = 2 hours post treatment, read-out: P-AKT % relative to control at 2 hours
[7] = 5 hours post treatment, read-out: P-AKT % relative to control at 5 hours

His-tagged human recombinant kinase full-length Akt1, sequence (P31749 whole entry): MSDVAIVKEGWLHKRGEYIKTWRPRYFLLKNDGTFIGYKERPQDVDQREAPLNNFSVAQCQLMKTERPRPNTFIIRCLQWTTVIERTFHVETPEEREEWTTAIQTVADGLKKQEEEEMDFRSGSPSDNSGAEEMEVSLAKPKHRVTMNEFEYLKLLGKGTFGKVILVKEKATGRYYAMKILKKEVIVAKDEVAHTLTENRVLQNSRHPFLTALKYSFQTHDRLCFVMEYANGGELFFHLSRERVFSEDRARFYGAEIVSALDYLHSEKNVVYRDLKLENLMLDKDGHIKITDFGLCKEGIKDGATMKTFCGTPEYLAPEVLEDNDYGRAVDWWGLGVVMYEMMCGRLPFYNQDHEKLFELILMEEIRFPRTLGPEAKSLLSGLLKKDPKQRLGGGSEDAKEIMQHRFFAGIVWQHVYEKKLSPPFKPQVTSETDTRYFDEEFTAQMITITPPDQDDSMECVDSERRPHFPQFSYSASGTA

| SMILES | IC50 (A2058 (melanoma)) [µM] | IC50 (HT-144 (melanoma)) [µM] | IC50 (MeWo (melanoma)) [µM] | IC50 (H1993 (NSCLC)) [µM] | IC50 (Malme-3M (melanoma)) [µM] | IC50 (A375 (melanoma)) [µM] | IC50 (UACC-62 (melanoma)) [µM] | IC50 (HMCB (melanoma)) [µM] | IC50 (UACC-257 (melanoma)) [µM] | IC50 (U87 (brain)) [µM] | IC50 (SK-Mel-28 (melanoma)) [µM] | IC50 [1] [µM] | IC50 [2] [µM] | response vs control in vivo at 50 mg/kg [3, 6] [%] | response vs control in vivo at 50 mg/kg [3, 7] [%] | IC50 (MCF7) [µM] | IC50 [4] [µM] | IC50 (LnCAP) [µM] | IC50 [5] [µM] |
| --- | --- | --- | --- | --- | --- | --- | --- | --- | --- | --- | --- | --- | --- | --- | --- | --- | --- | --- | --- |
| NC1(c2ccc(-c3nc4nc(-c5ccccc5)ccn4c3-c3ccccc3)cc2)CCC1 [Example 1-3] | 2.2 | 2.3 | 2 | 0.6 | 1.9 | 2.2 | 2.2 | 2.6 | 1.1 | 4.9 | 2 | 1.7 |  |  |  |  |  |  |  |
| COc1cc(C(N)=O)cn2c(-c3ccccc3)c(-c3ccc(C4(N)CCC4)cc3)nc12 [Example 1-13] |  |  |  |  |  |  |  |  |  |  |  | 0.9 | 0.024 | 95.7 | 152 | 0.4 | 0.035 | 1.1 | 1.02 |
| COc1ccn2c(-c3ccccc3)c(-c3ccc(C4(N)CCC4)cc3)nc2n1 [Example 2-0, 1-[4-(7-methoxy-3-phenyl-imidazo[1,2-a]pyrimidin-2-yl)-phenyl]-cyclobutylamine] | 2.1 | 2.1 | 5.2 | 0.5 | 2.4 | 8.6 | 8.9 | 8.5 | 2 | 10 | 3.7 | 0.8 | 0.142 |  |  |  | 0.03 |  |  |
| CCc1ccn2c(-c3ccccc3)c(-c3ccc(C4(N)CCC4)cc3)nc2c1 [Example 2-21] |  |  |  |  |  |  |  |  |  |  |  | 2 | 1.66 |  |  | 2 | 0.537 | 1.9 |  |
| NC1(c2ccc(-c3nc4cc(-c5cccnc5)ccn4c3-c3ccccc3)cc2)CCC1 [Example 2-110] |  |  |  |  |  |  |  |  |  |  |  | 1.7 | 0.129 | 10.2 | 16.4 | 0.7 | 0.041 | 0.5 |  |
| NC1(c2ccc(-c3nc4cc(C(=O)NO)ccn4c3-c3ccccc3)cc2)CCC1 [Example 2-127] |  |  |  |  |  |  |  |  |  |  |  | 5.4 | 0.132 |  |  |  | 1.68 | 1.2 | 4.87 |
| CCOC(=O)c1ccc2nc(-c3ccc(C4(N)CCC4)cc3)c(-c3ccccc3)n2c1 [Example 2-143] |  |  |  |  |  |  |  |  |  |  |  | 9.5 | 0.093 |  |  |  | 0.901 | 1.8 | 1.21 |
| NC(=O)c1cc(Cl)c2nc(-c3ccc(C4(N)CCC4)cc3)c(-c3ccccc3)n2c1 [Example 6-1, 2-[4-(1-amino-cyclobutyl)-phenyl]-8-chloro-3-phenyl-imidazo[1,2-a]pyridine-6-carboxylic acid amide] |  |  |  |  |  |  |  |  |  |  |  | 0.3 | 0.012 | 7.7 | 7.5 | 0.3 | 0.005 | 0.4 |  |
